In US9695155B2, “Herbicidal substituted pyrimidinyloxy benzene compounds” (E. I. DU PONT DE NEMOURS AND COMPANY, priority 2013, dated 2017):

Key:
pigweed = test: Test C postemergence; type: in vivo, Amaranthus retroflexus; conditions: for Plant response rating, Pigweed / Pigweed plant response rating: scale 0 to 100 (0 no effect, 100 complete control)
Summary of the method: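 Greenhouse herbicide screen. Pre: seeded loam/sand, sprayed at planting. Post: 1–4 leaf plants (2–18 cm) in peat-based mix. Formulation: solvent mixture + surfactant, non-phytotoxic. Readout: visual % control vs untreated, 13–15 d; dash = not tested.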

morningglory [1] = test: Test A preemergence; type: in vivo, Ipomoea spp.; conditions: for Plant response rating, Morningglory: 125 g ai/ha, 0 to 100 scale where 0 is no effect and 100 is complete control; for Morningglory plant response rating: 0 to 100 scale, 0 no effect, 100 complete control, approx. 10 days
Summary of the method: (§1)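 Visual 0–100 rating (100 = complete control) taken about 10 d post-treatment relative to untreated checks. Preemergence: directed soil spray on sown loam/sand pots. Postemergence: seedlings 2–10 cm, 1–2 leaf. Non-phytotoxic solvent formulation with surfactant.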

velvetleaf [2] = test: Test A preemergence; type: in vivo, Abutilon theophrasti; conditions: for Plant response rating, Velvetleaf: 125 g ai/ha, 0 to 100 scale where 0 is no effect and 100 is complete control; for Velvetleaf plant response rating: 0 to 100 scale, 0 no effect, 100 complete control, approx. 10 days
Summary of the method: as §1

wheat [3] = test: Test A postemergence; type: in vivo, Triticum aestivum
Summary of the method: as §1

Heteranthera limosa = test: Test B flooded paddy test; type: in vivo; conditions: Flood, 250 g ai/ha; 0 to 100 scale where 0 is no effect and 100 is complete control
Summary of the method: (§2)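 Visual ratings on a 0 to 100 scale, where 100 means complete control, compared treated plants with controls after 13 to 15 days in a greenhouse. Treatment went into paddy water 3 cm deep over the soil, applied to plants at the 2-leaf stage.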

wheat [4] = test: Test A preemergence; type: in vivo, Triticum aestivum; conditions: for Plant response rating, Wheat: 125 g ai/ha, 0 to 100 scale where 0 is no effect and 100 is complete control; for Wheat plant response rating: 0 to 100 scale, 0 no effect, 100 complete control, approx. 10 days
Summary of the method: as §1

morningglory [5] = test: Test A postemergence; type: in vivo, Ipomoea spp.
Summary of the method: as §1

waterhemp = test: Test C postemergence; type: in vivo, Amaranthus rudis; conditions: for Plant response rating, Waterhemp / Waterhemp plant response rating: scale 0 to 100 (0 no effect, 100 complete control)
Text: Seeds of plant species selected from blackgrass (Alopecurus myosuroides), Italian ryegrass (Lolium multiflorum), wheat, winter (winter wheat, Triticum aestivum), galium (catchweed bedstraw, Galium aparine), corn (Zea mays), large (Lg) crabgrass (Digitaria sanguinalis), giant foxtail (Setaria faberii), johnsongrass (Sorghum halepense), lambsquarters (Chenopodium album), morningglory (Ipomoea coccinea), yellow nutsedge (Cyperus esculentus), pigweed (Amaranthus retroflexus), ragweed (common ragweed, Ambrosia elatior), soybean (Glycine max), barnyardgrass (Echinochloa crus-galli), oilseed rape (Brassica napus), waterhemp (common waterhemp, Amaranthus rudis), kochia (Kochia scoparia), wild oat (Avena fatua), surinam grass (Brachiaria decumbens), foxtail, green (green foxtail, Setaria viridis), goosegrass (Eleusine indica), bromegrass, downy (downy bromegrass, Bromus tectorum), nightshade (eastern black nightshade, Solanum ptycanthum), cocklebur (common cocklebur, Xanthium strumarium), cupgrass, woolly (woolly cupgrass, Eriochloa villosa), bermudagrass (Cynodon dactylon), sunflower, (common oilseed sunflower, Helianthus annuus), Russian thistle (Salsola kali), and velvetleaf (Abutilon theophrasti) were planted into a blend of loam soil and sand and treated preemergence with test chemicals formulated in a non-phytotoxic solvent mixture which included a surfactant.
At the same time, plants selected from these crop and weed species and also barley, winter (winter barley, Hordeum vulgare), windgrass (Apera spica-venti), chickweed (common chickweed, Stellaria media), deadnettle (henbit deadnettle, Lamium amplexicaule), and canarygrass (littleseed canarygrass, Phalaris minor) were planted in pots containing Redi-Earth® planting medium (Scotts Company, 14111 Scottslawn Road, Marysville, Ohio 43041) comprising spaghnum peat moss, vermiculite, wetting agent and starter nutrients and treated with postemergence applications of test chemicals formulated in the same manner. Plants ranged in height from 2 to 18 cm (1- to 4-leaf stage) for postemergence treatments. Treated plants and controls were maintained in a greenhouse for 13 to 15 days, after which time all species were compared to controls and visually evaluated. Plant response ratings, summarized in Table C, are based on a scale of 0 to 100 where 0 is no effect and 100 is complete control. A dash (-) response means no test result.

velvetleaf [6] = test: Test A postemergence; type: in vivo, Abutilon theophrasti
Summary of the method: as §1

sedge, umbrella = test: Test B flooded paddy test; type: in vivo, Cyperus difformis; conditions: Flood, 250 g ai/ha; 0 to 100 scale where 0 is no effect and 100 is complete control
Summary of the method: as §2

[7] = Postemergence, 31 g ai/ha, 13 to 15 days
[8] = 125 g ai/ha, 0 to 100 scale where 0 is no effect and 100 is complete control
[9] = 500 g ai/ha, 0 to 100 scale, 0 no effect, 100 complete control
[10] = 1000 g ai/ha, 0 to 100 scale, 0 no effect, 100 complete control
[11] = 500 g ai/ha, 0 to 100 scale where 0 is no effect and 100 is complete control
[12] = 8 g ai/ha, postemergence, 0 is no effect, 100 is complete control
[13] = 16 g ai/ha, postemergence, 0 is no effect, 100 is complete control
[14] = 125 g ai/ha, postemergence, visual rating
[15] = 31 g ai/ha, postemergence, visual rating, 13 to 15 days
[16] = Postemergence, 62 g ai/ha, 13 to 15 days

Compound	Plant response rating (0 to 100), Pigweed (pigweed; 125 g ai/ha, postemergence)	Plant response rating (0 to 100), Pigweed (pigweed; 250 g ai/ha, postemergence)	Plant response rating, Pigweed (pigweed; [7])	Plant response rating, Pigweed (pigweed; Postemergence, 62 g ai/ha)	Plant response rating, Ducksalad (Heteranthera limosa)	Plant response rating (0 to 100), Waterhemp (waterhemp; 125 g ai/ha, postemergence)	Plant response rating (0 to 100), Waterhemp (waterhemp; 250 g ai/ha, postemergence)	Plant response rating, Waterhemp (waterhemp; [7])	Plant response rating, Waterhemp (waterhemp; Postemergence, 62 g ai/ha)	Plant response rating, Sedge, Umbrella (sedge, umbrella)	Plant response rating, Wheat (wheat [3]; [10])	Plant response rating (0 to 100), Pigweed (pigweed; [13])	Plant response rating (0 to 100), Waterhemp (waterhemp; [13])	Plant response rating, Pigweed (pigweed; [14])	Plant response rating, Waterhemp (waterhemp; [14])	also measured
N#Cc1cccc(Oc2ncc(F)cn2)c1-n1cc(Br)cn1 [Compound 62]	75	80	50	65	80	75	75	40	60	80	–	–	–	–	–	Plant response rating, Morningglory (morningglory [1]): 0; Morningglory plant response rating (morningglory [1]; 500 g ai/ha): 90; Plant response rating, Velvetleaf (velvetleaf [2]): 50; Velvetleaf plant response rating (velvetleaf [2]; 500 g ai/ha): 100; Plant response rating, Wheat (wheat [3]; [8]): 20; Plant response rating, Wheat (wheat [3]; [9]): 100; Plant response rating, Wheat (wheat [4]): 0; Wheat plant response rating (wheat [4]; 500 g ai/ha): 80; Plant response rating, Morningglory (morningglory [5]; [8]): 90; Plant response rating, Morningglory (morningglory [5]; [9]): 100; Plant response rating, Velvetleaf (velvetleaf [6]; [8]): 100; Plant response rating, Velvetleaf (velvetleaf [6]; [9]): 100
Clc1cnc(Oc2cccc(Br)c2-n2cc(Br)cn2)nc1 [Compound 65]	98	–	90	95	95	90	–	75	95	95	60	–	–	–	–	Morningglory plant response rating (morningglory [1]; 1000 g ai/ha): 100; Velvetleaf plant response rating (velvetleaf [2]; 1000 g ai/ha): 100; Wheat plant response rating (wheat [4]; 1000 g ai/ha): 30; Plant response rating, Morningglory (morningglory [5]; [10]): 100; Plant response rating, Velvetleaf (velvetleaf [6]; [10]): 100
N#Cc1cccc(Oc2ncc(Cl)cn2)c1-n1cnc(Br)c1 [Compound 74]	65	80	40	60	40	60	80	35	60	70	–	–	–	–	–	Plant response rating, Morningglory (morningglory [1]): 70; Morningglory plant response rating (morningglory [1]; 500 g ai/ha): 100; Plant response rating, Velvetleaf (velvetleaf [2]): 70; Velvetleaf plant response rating (velvetleaf [2]; 500 g ai/ha): 100; Plant response rating, Wheat (wheat [3]; [8]): 0; Plant response rating, Wheat (wheat [3]; [11]): 50; Plant response rating, Wheat (wheat [4]): 0; Wheat plant response rating (wheat [4]; 500 g ai/ha): 40; Plant response rating, Morningglory (morningglory [5]; [8]): 80; Plant response rating, Morningglory (morningglory [5]; [11]): 100; Plant response rating, Velvetleaf (velvetleaf [6]; [8]): 90; Plant response rating, Velvetleaf (velvetleaf [6]; [11]): 100
CC(=NO)c1cn(-c2c(Br)cccc2Oc2ncc(Cl)cn2)nn1 [Compound 115]	–	–	–	–	70	–	–	–	–	20	90	50	30	–	–	Plant response rating (0 to 100), Pigweed (pigweed; [12]): 15; Morningglory plant response rating (morningglory [1]; 1000 g ai/ha): 50; Velvetleaf plant response rating (velvetleaf [2]; 1000 g ai/ha): 100; Wheat plant response rating (wheat [4]; 1000 g ai/ha): 40; Plant response rating, Morningglory (morningglory [5]; [10]): 100; Plant response rating (0 to 100), Waterhemp (waterhemp; [12]): 5; Plant response rating, Velvetleaf (velvetleaf [6]; [10]): 100
FCc1cccc(Oc2ncc(Br)cn2)c1-n1cc(C(F)(F)F)cn1 [Compound 120]	–	–	–	85	95	–	–	–	80	95	–	40	75	95	85	Plant response rating, Wheat (wheat [3]; 31 g ai/ha, 0 to 100 scale, 0 no effect, 100 complete control): 0
Fc1cccc(Oc2ncc(Cl)cn2)c1-n1cc(C2CC2)nn1 [Compound 155]	–	–	–	98	100	–	–	–	80	80	90	80	45	98	98	Pigweed plant response rating (pigweed; [15]): 75; Waterhemp plant response rating (waterhemp; [15]): 65
N#Cc1cccc(Oc2ncc(Cl)cn2)c1-n1cc(-n2ccc(C(F)(F)F)n2)cn1 [Compound 284]	–	100	–	–	80	–	100	–	–	85	–	–	–	100	98	Pigweed plant response rating (pigweed; [15]): 98; Plant response rating, Pigweed (pigweed; [16]): 98; Plant response rating, Wheat (wheat [3]; 125 g ai/ha, 0 to 100 scale, 0 no effect, 100 complete control): 20; Plant response rating, Wheat (wheat [3]; [11]): 20; Waterhemp plant response rating (waterhemp; [15]): 85; Plant response rating, Waterhemp (waterhemp; [16]): 85
